Molecules are shown by their SMILES.

Data set [1] relates to Euschistus heros (Neotropical Brown Stink Bug). Description: whole plant or invertebrate. It is filed as in vivo. The conditions noted are these: 120 h, application rate of 200 ppm, N2 nymphs on sprayed soybean leaves, 5 days after infestation, read-out: effect in at least one of the two categories (mortality or growth inhibition).
For data set [2], the system named is Myzus persicae (Green Peach Aphid). Put plainly: whole plant or invertebrate. It is filed as in vivo. The conditions noted are these: 144 h, test rate of 24 ppm, systemic, roots of infested pea seedlings in test solution, 6 days.
In data set [3] the test system is Plutella xylostella (Diamond Back Moth). Description: whole plant or invertebrate. Format: in vivo. The conditions noted are these: 120 h, application rate of 200 ppm, L2 larvae on treated artificial diet, 5 days after infestation, read-out: effect in at least one of the two categories (mortality or growth inhibition).
The subject of data set [4] is Myzus persicae (Green Peach Aphid). Put plainly: whole plant or invertebrate. The conditions noted are these: foliar, 144 h.
The subject of data set [5] is Spodoptera littoralis (Egyptian Cotton Leaf Worm). Put plainly: whole plant or invertebrate. The conditions noted are these: in Gossypium barbadense, foliar, 72 h, read-out: control (mortality, anti-feeding effect, growth inhibition).
Data set [6] has as its system Diabrotica Balteata (Corn Root Worm). Description: Diabrotica balteata (Corn Root Worm). The conditions noted are these: in Zea mays, 96 h, read-out: effect in at least one of the two categories (mortality or growth inhibition).
Data set [7] concerns Bemisia tabaci (Cotton White Fly). The conditions noted are these: in Gossypium hirsutum, foliar, 144 h.
The test system of data set [8] is Tetranychus urticae (Two-Spotted Spider Mite). The conditions noted are these: foliar, 192 h.

Usually melting point stands for the temperature of the solid-liquid transition. With `CCSc1cc(OC(C)(C)C(=O)O)cnc1-c1nc2cc(C(F)(F)F)ncc2n1C`, the melting point was in the range of 161 to 163 °C.
Turning to `CCS(=O)(=O)c1cc(OC(F)(F)CBr)ccc1-c1nc2cc(C(F)(F)F)ncc2n1C`, the melting point is 137 to 139 °C.
For `CCS(=O)(=O)c1cc(OC(C#N)SC)cnc1-c1nc2cc(C(F)(F)F)ncc2n1C` (centres unmarked), the melting point lay within 204 to 206 °C.
The same measure, in the same setting: under `CCS(=O)(=O)c1cc(OC(C(=O)OC)S(C)(=O)=O)cnc1-c1nc2cc(C(F)(F)F)ncc2n1C` (centres unmarked) stands 122 to 124 °C; under `CCS(=O)(=O)c1cc(OC(SC)C(N)=O)cnc1-c1nc2cc(C(F)(F)F)ncc2n1C` (centres unmarked), 142 to 144 °C; under `CCS(=O)(=O)c1cc(OC(C)C(=O)OC)cnc1-c1nc2cc(C(F)(F)F)ncc2n1C` (centres unmarked), 131 to 133 °C.
In turn, `CCOC(=O)C(C)(C)Oc1cnc(-c2nc3cc(C(F)(F)F)ncc3n2C)c(S(=O)(=O)CC)c1` registered a melting point of 145 to 147 °C.
As for `CCS(=O)(=O)c1cc(OC(C)(C)C(=O)O)cnc1-c1nc2cc(C(F)(F)F)ncc2n1C`, the melting point lay in the range of 242 to 244 °C.
The term mortality denotes the share of the test organisms that died. For `CCS(=O)(=O)c1cc(OC(C)(C)C)cnc1-c1nc2cc(C(F)(F)F)ncc2n1C` [Compound P5, 2-(5-tert-butoxy-3-ethylsulfonyl-2-pyridyl)-3-methyl-6-(trifluoromethyl)imidazo[4,5-c]pyridine], the percent effect (mortality or growth inhibition) at 200 ppm in data set [1] and in [3] was at least 80% in each case. The mortality at 24 ppm in [2] is at least 80%. Also, the mortality at 200 ppm in data set [4], in data set [5], in data set [6], in data set [7] and in data set [8] was at least 80% in each case.
As to `CCS(=O)(=O)c1cc(OC(C)(C)CC#N)cnc1-c1nc2cc(C(F)(F)F)ncc2n1C` [Compound P47, 3-[[5-ethylsulfonyl-6-[3-methyl-6-(trifluoromethyl)imidazo[4,5-c]pyridin-2-yl]-3-pyridyl]oxy]-3-methyl-butanenitrile], the percent effect (mortality or growth inhibition) at 200 ppm in data set [1] and in data set [3] was at least 80% throughout. In data set [2], the mortality at 24 ppm is at least 80%. Also, the mortality at 200 ppm in data set [4], in data set [6], in data set [7] and in [8] was at least 80% in each case.
Take `CCS(=O)(=O)c1cc(OC2CCC2)cnc1-c1nc2cc(C(F)(F)F)ncc2n1C` [Compound P62, 2-[5-(cyclobutoxy)-3-ethylsulfonyl-2-pyridyl]-3-methyl-6-(trifluoromethyl)imidazo[4,5-c]pyridine]: the percent effect (mortality or growth inhibition) at 200 ppm in data set [1] and in data set [3] was at least 80% throughout. Besides, the mortality at 200 ppm in data set [4], in data set [5], in data set [6], in [7] and in data set [8] was at least 80% in each case.
`CCS(=O)(=O)c1cc(OC(C)C)cnc1-c1nc2cc(SC(F)(F)F)ncc2n1C` [Compound P71, 2-(3-ethylsulfonyl-5-isopropoxy-2-pyridyl)-3-methyl-6-(trifluoromethylsulfanyl)imidazo[4,5-c]pyridine]: the percent effect (mortality or growth inhibition) at 200 ppm in [1] and in [3] was at least 80% in each case. The mortality at 200 ppm in [4], in [5], in data set [6], in [7] and in data set [8] was at least 80% throughout.
Take `CCS(=O)(=O)c1cc(OC(C)C)cnc1-c1nc2cc(S(=O)(=O)C(F)(F)F)ncc2n1C` [Compound P72, 2-(3-ethylsulfonyl-5-isopropoxy-2-pyridyl)-3-methyl-6-(trifluoromethylsulfonyl)imidazo[4,5-c]pyridine]: the percent effect (mortality or growth inhibition) at 200 ppm in data set [1] and in data set [3] was at least 80% each time. This compound came in with a mortality at 24 ppm in [2] of at least 80%. The mortality at 200 ppm in data set [4], in data set [5], in data set [6] and in data set [7] was at least 80% each time.
Consider `CCS(=O)(=O)c1cc(OCC(C)C)cnc1-c1nc2cc(C(F)(F)F)ncc2n1C` [Compound P75, 2-(3-ethylsulfonyl-5-isobutoxy-2-pyridyl)-3-methyl-6-(trifluoromethyl)imidazo[4,5-c]pyridine], for which the percent effect (mortality or growth inhibition) at 200 ppm in data set [1] and in data set [3] was at least 80% in each case. Further, the mortality at 24 ppm in data set [2] is at least 80%. Besides, the mortality at 200 ppm in [4], in data set [5], in data set [6] and in data set [7] was at least 80% each time.
Consider `CCS(=O)(=O)c1cc(OC(C)(C)C(F)(F)F)cnc1-c1nc2cc(C(F)(F)F)ncc2n1C` [Compound P76, 2-[3-ethylsulfonyl-5-(2,2,2-trifluoro-1,1-dimethyl-ethoxy)-2-pyridyl]-3-methyl-6-(trifluoromethyl)imidazo[4,5-c]pyridine], for which the percent effect (mortality or growth inhibition) at 200 ppm in data set [1] and in data set [3] was at least 80% in each case. In addition, the mortality at 200 ppm in [4], in [5], in data set [6], in data set [7] and in data set [8] was at least 80% throughout.
Regarding `CCS(=O)(=O)c1cc(OCC2(C#N)CC2)cnc1-c1nc2cc(C(F)(F)F)ncc2n1C` [Compound P79, 1-[[5-ethylsulfonyl-6-[3-methyl-6-(trifluoromethyl)imidazo[4,5-c]pyridin-2-yl]-3-pyridyl]oxymethyl]cyclopropanecarbonitrile], the percent effect (mortality or growth inhibition) at 200 ppm in data set [1] and in data set [3] was at least 80% each time. For the same compound, in data set [2], the mortality at 24 ppm was at least 80%. The mortality at 200 ppm in [4], in [5], in data set [6], in [7] and in data set [8] was at least 80% in each case.
`CCS(=O)(=O)c1cc(OC(C)C)cnc1-c1nc2cc([S+]([O-])C(F)F)ncc2n1C` (centres unmarked) [Compound P87, 6-(difluoromethylsulfinyl)-2-(3-ethylsulfonyl-5-isopropoxy-2-pyridyl)-3-methyl-imidazo[4,5-c]pyridine]: the percent effect (mortality or growth inhibition) at 200 ppm in data set [1] and in data set [3] was at least 80% each time. The compound further yielded a mortality at 24 ppm in data set [2] of at least 80%. Moreover, the mortality at 200 ppm in data set [4], in [5] and in [8] was at least 80% throughout.
With `CCS(=O)(=O)c1cc(OC(C)C)cnc1-c1nc2cc(S(=O)(=O)C(F)F)ncc2n1C` [Compound P88, 6-(difluoromethylsulfonyl)-2-(3-ethylsulfonyl-5-isopropoxy-2-pyridyl)-3-methyl-imidazo[4,5-c]pyridine], the percent effect (mortality or growth inhibition) at 200 ppm in data set [1] and in data set [3] was at least 80% each time. This compound gave a mortality at 24 ppm in [2] of at least 80%. Also, the mortality at 200 ppm in data set [4], in data set [5] and in data set [8] was at least 80% throughout.
For `CCS(=O)(=O)c1cc(OC(CF)CF)ccc1-c1nc2cc(C(F)(F)F)ncc2n1C` [Compound P100, 2-[2-ethylsulfonyl-4-[2-fluoro-1-(fluoromethyl)ethoxy]phenyl]-3-methyl-6-(trifluoromethyl)imidazo[4,5-c]pyridine], the percent effect (mortality or growth inhibition) at 200 ppm in [1] and in data set [3] was at least 80% in each case. Besides, in data set [2], the mortality at 24 ppm was at least 80%. For the same compound, the mortality at 200 ppm in [4], in data set [5], in [6] and in data set [7] was at least 80% each time.
Take `CCS(=O)(=O)c1cc(OCC2(C#N)CC2)ccc1-c1nc2cc(C(F)(F)F)ncc2n1C` [Compound P101, 1-[[3-ethylsulfonyl-4-[3-methyl-6-(trifluoromethyl)imidazo[4,5-c]pyridin-2-yl]phenoxy]methyl]cyclopropanecarbonitrile]: the percent effect (mortality or growth inhibition) at 200 ppm in data set [1] and in data set [3] was at least 80% throughout. The mortality at 24 ppm in [2] is at least 80%. The mortality at 200 ppm in data set [4], in [5], in data set [6] and in [7] was at least 80% throughout.
As to `CCS(=O)(=O)c1cc(OCCSC)ccc1-c1nc2cc(C(F)(F)F)ncc2n1C` [Compound P104, 2-[2-ethylsulfonyl-4-(2-methylsulfanylethoxy)phenyl]-3-methyl-6-(trifluoromethyl)imidazo[4,5-c]pyridine], the percent effect (mortality or growth inhibition) at 200 ppm in data set [1] was at least 80%. In [2], this compound displayed a mortality at 24 ppm of at least 80%. The mortality at 200 ppm in data set [4], in data set [6], in data set [7] and in data set [8] was at least 80% each time.

These data come from patent US20200216441A1, “PESTICIDALLY ACTIVE HETEROCYCLIC DERIVATIVES WITH SULFUR CONTAINING SUBSTITUENTS” (SYNGENTA PARTICIPATIONS AG, priority 2017, published 2020).
